These results are taken from PMC11406361, “Several orphan solute carriers functionally identified as organic cation transporters: Substrates specificity compared with known cation transporters” (The Journal of Biological Chemistry, 2024).

SMILES strings stand for the structures.

The target of one data set is T1, SLC35F4 (Homo sapiens, UniProt A4IF30).
T1 sequence (A4IF30 1-521): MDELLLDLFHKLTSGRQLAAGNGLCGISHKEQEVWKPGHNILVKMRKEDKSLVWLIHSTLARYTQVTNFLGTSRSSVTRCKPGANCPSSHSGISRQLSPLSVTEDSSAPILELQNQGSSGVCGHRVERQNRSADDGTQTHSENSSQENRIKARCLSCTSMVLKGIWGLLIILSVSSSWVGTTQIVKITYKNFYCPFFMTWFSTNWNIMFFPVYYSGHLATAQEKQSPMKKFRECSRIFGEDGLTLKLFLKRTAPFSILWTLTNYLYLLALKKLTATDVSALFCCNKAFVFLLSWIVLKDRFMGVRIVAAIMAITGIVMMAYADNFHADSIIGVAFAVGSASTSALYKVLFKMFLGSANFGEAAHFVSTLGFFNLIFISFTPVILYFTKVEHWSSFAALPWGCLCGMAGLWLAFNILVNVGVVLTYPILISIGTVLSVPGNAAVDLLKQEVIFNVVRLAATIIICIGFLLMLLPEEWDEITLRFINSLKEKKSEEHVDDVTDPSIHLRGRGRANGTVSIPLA
As to the kind of experiment: Uptake ratio screen, SLC35F4-overexpressing HEK293 over empty vector cells. In kind it is cell-based. To be noted: 2.5 μM, 2 min. Set-up: by amplifying the entire gene-of-interest within the HEK293 genome via a long-range PCR. The procedure: (§1) Typically discussed substrates of the proton organic-cation antiporter ([14]) are highlighted in dark green in Figure 1.
(§2) In preparation for transport experiments, 24-well plates were pre-coated with poly-D-lysine (Sigma-Aldrich) and 300,000 cells were plated per well and incubated for 48 h. Firstly, the 24-well plate was placed on a heating plate at 37 °C, and the cells were washed with 37 °C HBSS^+ buffer (Hank’s balanced salt solution supplemented with 10 mM Hepes and adjusted to pH 7.4; Thermo Fisher Scientific). The substance-of-interest, which was diluted in 37 °C HBSS^+ to a desired concentration, was added to the cells for exactly 2 min. […] The uptake was stopped with ice-cold HBSS^+, and the 24-well plate was removed from the heating plate. The cells were washed twice with the cold HBSS^+ before they were lysed for 15 min with 80% (v/v) acetonitrile containing the respective internal standard for mass spectrometry. For variations in seeded cell numbers between the cell lines, several wells were lysed in RIPA buffer and used for total protein quantification using a bicinchoninic assay ([74]) and bovine serum albumin as calibration.
(§3) The intracellular drug concentrations after transport experiments were analyzed by high-performance liquid chromatography coupled to tandem mass spectrometry analysis. The HPLC consisted of a Shimadzu Nexera HPLC System with a SIL-30AC autosampler, a LC-30AD pump, a CTO-20AC column oven, and a CBM-20A controller (Shimadzu). The reverse-phase chromatography of compounds was accomplished with a Brownlee SPP RP-Amide column with 4.6 × 100 mm inner dimensions, a particle size of 2.7 μm, and a preceding Phenomenex C-18 guard column. The mobile phase was composed of an organic additive with acetonitrile:methanol 6:1 (v/v) in total concentrations between 3% and 50% (v/v) and 0.1% (v/v) formic acid in the aqueous component of the eluent. During separation, the column oven was held at 40 °C and the mobile phase was maintained at a flow rate of 300 or 400 μl/min. After separation, the detection of substances was performed with an API 4000 tandem mass spectrometer (AB SCIEX, https://sciex.com/support/software-support/software-downloads), followed by quantification of results with the Analyst software (AB SCIEX, version 1.6.2). The composition of chromatographic conditions, as well as detailed mass spectrometric detection parameters, are listed in Table S5.
(§4) Transport-mediated net uptake was determined as fold-increase of transporter-overexpressing cells over empty vector–transfected control cells.

The target in a further data set is T2, SLC35F5 (Homo sapiens, UniProt Q8WV83).
T2 sequence (Q8WV83 1-523): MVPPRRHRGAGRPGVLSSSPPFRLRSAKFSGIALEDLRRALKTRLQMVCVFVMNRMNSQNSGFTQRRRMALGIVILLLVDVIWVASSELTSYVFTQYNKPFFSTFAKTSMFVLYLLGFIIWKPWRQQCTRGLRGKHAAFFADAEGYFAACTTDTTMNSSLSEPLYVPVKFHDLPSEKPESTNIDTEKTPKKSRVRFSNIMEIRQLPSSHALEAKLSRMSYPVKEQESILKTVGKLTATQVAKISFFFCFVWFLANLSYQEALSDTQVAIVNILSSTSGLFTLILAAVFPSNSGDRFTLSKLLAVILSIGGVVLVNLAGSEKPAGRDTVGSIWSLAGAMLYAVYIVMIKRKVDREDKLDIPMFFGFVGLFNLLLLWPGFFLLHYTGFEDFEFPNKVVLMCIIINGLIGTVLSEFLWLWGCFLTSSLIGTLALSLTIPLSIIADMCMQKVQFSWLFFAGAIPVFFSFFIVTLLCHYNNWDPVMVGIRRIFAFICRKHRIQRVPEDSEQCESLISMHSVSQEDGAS
The data set can be described thus: Uptake ratio screen, SLC35F5-overexpressing HEK293 over empty vector cells. The class given is cell-based. Set-up: by amplifying the entire gene-of-interest within the HEK293 genome via a long-range PCR. To be noted: 2.5 μM, 2 min. The procedure: as §1, §2, §3, §4

The next data set has as its target T3, SLC19A2 (Homo sapiens, UniProt O60779).
T3 construct: expressed in transfected cells
T3 sequence (O60779 1-497): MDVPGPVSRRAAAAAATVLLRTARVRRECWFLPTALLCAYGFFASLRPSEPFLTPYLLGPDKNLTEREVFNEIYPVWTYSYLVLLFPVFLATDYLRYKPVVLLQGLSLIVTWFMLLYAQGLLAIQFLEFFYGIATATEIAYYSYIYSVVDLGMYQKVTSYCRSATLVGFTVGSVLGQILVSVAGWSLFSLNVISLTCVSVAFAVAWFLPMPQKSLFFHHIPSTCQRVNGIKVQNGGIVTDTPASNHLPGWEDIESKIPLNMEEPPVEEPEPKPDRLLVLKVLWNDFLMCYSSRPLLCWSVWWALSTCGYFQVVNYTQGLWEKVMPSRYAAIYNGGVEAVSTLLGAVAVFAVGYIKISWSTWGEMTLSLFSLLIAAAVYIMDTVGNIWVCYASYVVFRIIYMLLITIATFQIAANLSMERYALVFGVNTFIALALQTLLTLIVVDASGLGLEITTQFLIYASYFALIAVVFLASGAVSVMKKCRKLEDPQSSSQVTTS
As to the kind of experiment: Uptake ratio screen, SLC19A2-overexpressing HEK293 over empty vector cells. The class given is cell-based. To be noted: 2.5 μM, 2 min. The procedure: as §1, §2
The intracellular drug concentrations after transport experiments were analyzed by high-performance liquid chromatography coupled to tandem mass spectrometry analysis. The HPLC consisted of a Shimadzu Nexera HPLC System with a SIL-30AC autosampler, a LC-30AD pump, a CTO-20AC column oven, and a CBM-20A controller (Shimadzu). The reverse-phase chromatography of compounds was accomplished with a Brownlee SPP RP-Amide column with 4.6 × 100 mm inner dimensions, a particle size of 2.7 μm, and a preceding Phenomenex C-18 guard column. […] After separation, the detection of substances was performed with an API 4000 tandem mass spectrometer (AB SCIEX, https://sciex.com/support/software-support/software-downloads), followed by quantification of results with the Analyst software (AB SCIEX, version 1.6.2). […]
as §4

The target in a further data set is T4, SLC22A18 (Homo sapiens, UniProt Q96BI1).
T4 construct: by amplifying the entire gene-of-interest within the HEK293 genome via a long-range PCR
T4 sequence (Q96BI1 whole entry): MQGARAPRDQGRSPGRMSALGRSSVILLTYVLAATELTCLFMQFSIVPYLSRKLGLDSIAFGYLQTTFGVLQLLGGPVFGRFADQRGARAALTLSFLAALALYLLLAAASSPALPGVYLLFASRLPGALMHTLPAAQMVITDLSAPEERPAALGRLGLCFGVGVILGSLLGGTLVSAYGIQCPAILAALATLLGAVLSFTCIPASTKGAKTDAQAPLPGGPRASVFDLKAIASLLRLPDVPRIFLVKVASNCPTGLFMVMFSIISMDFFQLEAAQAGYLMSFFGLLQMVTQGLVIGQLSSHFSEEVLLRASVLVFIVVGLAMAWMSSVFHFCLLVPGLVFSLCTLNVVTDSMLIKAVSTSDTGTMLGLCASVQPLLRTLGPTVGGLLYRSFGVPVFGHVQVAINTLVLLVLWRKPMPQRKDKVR
As to the kind of experiment: Uptake ratio screen, SLC22A18-overexpressing HEK293 over empty vector cells. The class given is cell-based. As to conditions: 2.5 μM (nicotine 10 μM), 2 min. The procedure:
as §1
In preparation for transport experiments, 24-well plates were pre-coated with poly-D-lysine (Sigma-Aldrich) and 300,000 cells were plated per well and incubated for 48 h. Firstly, the 24-well plate was placed on a heating plate at 37 °C, and the cells were washed with 37 °C HBSS^+ buffer (Hank’s balanced salt solution supplemented with 10 mM Hepes and adjusted to pH 7.4; Thermo Fisher Scientific). The substance-of-interest, which was diluted in 37 °C HBSS^+ to a desired concentration, was added to the cells for exactly 2 min. […] For variations in seeded cell numbers between the cell lines, several wells were lysed in RIPA buffer and used for total protein quantification using a bicinchoninic assay ([74]) and bovine serum albumin as calibration.
The intracellular drug concentrations after transport experiments were analyzed by high-performance liquid chromatography coupled to tandem mass spectrometry analysis. […] After separation, the detection of substances was performed with an API 4000 tandem mass spectrometer (AB SCIEX, https://sciex.com/support/software-support/software-downloads), followed by quantification of results with the Analyst software (AB SCIEX, version 1.6.2). […]

The next data set has as its target SLC35G3 (Homo sapiens, UniProt Q8N808). The data set can be described thus: Uptake ratio screen, SLC35G3-overexpressing HEK293 over empty vector cells. The class given is cell-based. More on the design: by amplifying the entire gene-of-interest within the HEK293 genome via a long-range PCR. To be noted: 2.5 μM substrate, 2 min, HEK293.
For a further data set, the system named is hCMEC/D3 cell line. As to the kind of experiment: Antiport (exchange) of diphenhydramine and nalmefene in hCMEC/D3 cells. To be noted: hCMEC/D3 preloaded with DPH, within 2 min, unpublished data. The class given is cell-based, human.
For another data set, the target named is SLC38A10 (Homo sapiens, UniProt Q9HBR0).
Sequence of SLC38A10 (Q9HBR0 whole entry): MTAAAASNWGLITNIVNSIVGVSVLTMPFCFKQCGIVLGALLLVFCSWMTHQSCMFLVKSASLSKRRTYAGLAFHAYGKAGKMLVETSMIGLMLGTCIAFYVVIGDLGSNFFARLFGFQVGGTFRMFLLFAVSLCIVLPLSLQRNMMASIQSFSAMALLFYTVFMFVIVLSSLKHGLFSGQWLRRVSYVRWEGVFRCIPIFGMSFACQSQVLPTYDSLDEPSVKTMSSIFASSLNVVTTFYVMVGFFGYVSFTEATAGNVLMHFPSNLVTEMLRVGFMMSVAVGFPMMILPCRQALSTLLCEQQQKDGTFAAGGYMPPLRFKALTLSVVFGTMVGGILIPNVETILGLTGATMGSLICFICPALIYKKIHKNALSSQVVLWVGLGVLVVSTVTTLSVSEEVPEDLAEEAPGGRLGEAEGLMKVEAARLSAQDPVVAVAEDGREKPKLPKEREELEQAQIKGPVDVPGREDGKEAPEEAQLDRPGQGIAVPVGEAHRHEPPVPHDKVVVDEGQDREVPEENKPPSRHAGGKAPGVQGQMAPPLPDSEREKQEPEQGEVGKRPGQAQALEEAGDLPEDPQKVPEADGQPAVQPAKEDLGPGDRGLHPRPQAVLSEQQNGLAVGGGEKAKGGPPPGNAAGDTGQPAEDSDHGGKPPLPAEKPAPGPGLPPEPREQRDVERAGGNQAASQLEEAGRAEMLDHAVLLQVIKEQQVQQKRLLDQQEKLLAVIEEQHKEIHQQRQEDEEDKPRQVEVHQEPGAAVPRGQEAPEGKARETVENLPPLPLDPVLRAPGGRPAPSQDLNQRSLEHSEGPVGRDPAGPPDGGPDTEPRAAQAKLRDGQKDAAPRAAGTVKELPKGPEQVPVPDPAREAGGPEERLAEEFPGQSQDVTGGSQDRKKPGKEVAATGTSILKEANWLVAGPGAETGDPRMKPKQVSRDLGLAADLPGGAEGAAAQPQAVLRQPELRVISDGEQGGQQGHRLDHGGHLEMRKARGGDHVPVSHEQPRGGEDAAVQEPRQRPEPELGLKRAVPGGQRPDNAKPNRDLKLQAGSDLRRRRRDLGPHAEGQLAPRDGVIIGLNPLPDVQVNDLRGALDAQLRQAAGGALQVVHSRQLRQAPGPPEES
For the next data set, the target named is T5, SLC22A15 (Homo sapiens, UniProt Q8IZD6).
T5 construct: by amplifying the entire gene-of-interest within the HEK293 genome via a long-range PCR
T5 sequence (Q8IZD6 whole entry): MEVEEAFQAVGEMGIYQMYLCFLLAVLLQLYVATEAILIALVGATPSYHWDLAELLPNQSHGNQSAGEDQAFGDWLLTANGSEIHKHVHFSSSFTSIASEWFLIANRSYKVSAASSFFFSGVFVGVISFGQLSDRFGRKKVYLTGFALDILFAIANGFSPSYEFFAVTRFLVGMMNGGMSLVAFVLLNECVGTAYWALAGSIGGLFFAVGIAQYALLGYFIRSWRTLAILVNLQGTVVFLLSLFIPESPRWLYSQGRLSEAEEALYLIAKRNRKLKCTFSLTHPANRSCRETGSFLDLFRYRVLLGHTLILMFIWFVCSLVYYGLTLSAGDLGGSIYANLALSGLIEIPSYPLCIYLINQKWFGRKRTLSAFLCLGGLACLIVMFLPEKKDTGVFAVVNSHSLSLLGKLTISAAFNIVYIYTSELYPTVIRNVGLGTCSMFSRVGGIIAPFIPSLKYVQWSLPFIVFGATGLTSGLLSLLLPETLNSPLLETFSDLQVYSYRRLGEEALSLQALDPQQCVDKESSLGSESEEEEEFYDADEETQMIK
The data set can be described thus: Uptake ratio screen, SLC22A15-overexpressing HEK293 over empty vector cells. In kind it is cell-based. To be noted: 2.5 μM (nicotine 10 μM), 2 min. The procedure:
as §1, §2, §3, §4

Sequence of SLC35G3 (Q8N808 whole entry): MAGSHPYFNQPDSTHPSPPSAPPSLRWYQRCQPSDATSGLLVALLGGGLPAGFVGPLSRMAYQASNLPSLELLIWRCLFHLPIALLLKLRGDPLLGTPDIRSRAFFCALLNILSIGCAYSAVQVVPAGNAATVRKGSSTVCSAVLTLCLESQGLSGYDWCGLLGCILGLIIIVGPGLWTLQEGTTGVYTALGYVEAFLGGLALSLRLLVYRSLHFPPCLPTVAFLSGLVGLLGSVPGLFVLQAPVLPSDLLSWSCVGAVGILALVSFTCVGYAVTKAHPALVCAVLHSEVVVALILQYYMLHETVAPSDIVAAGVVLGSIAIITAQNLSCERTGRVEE

With `COC(=O)C(c1ccccc1)C1CCCCN1` (stereo not shown) [Methylphenidate], the “Uptake by SLC35F4 (in words)” value on SLC35F4 was “enhanced cell uptake”. For the same molecule, the “Uptake by SLC35F5 (in words)” value at SLC35F5 is on record as “highest uptake rates”. Moreover, the “Uptake by SLC19A2 (in words)” value on SLC19A2 is recorded as “enhance cell uptake”. In addition, at SLC22A18, the “Uptake by SLC22A18 (in words)” value is “newly identified substrates”. Moreover, the “Uptake data for SLC35G3, mean value (fold-increase over empty vector control)” value at SLC35G3 was found to be 1.31.
On to `CN(C)CCOC(c1ccccc1)c1ccccc1` [Diphenhydramine], for which, in the data set with hCMEC/D3 cell line, the “Share of substrates exchanged (antiport)” value is listed as “approximately 60%”.
In the case of `CN1CCC[C@H]1c1cccnc1` [Nicotine], the “Vmax (±SEM)” value on SLC38A10 (SLC38A10, HEK293, net uptake over empty vector cells) is 48.4 (±7.26) pmol × mg protein^-1 × min^-1. Further, the “Clint (±SEM)” value on SLC38A10 (SLC38A10, ratio of Vmax over KM) was 0.78 (±0.57) μl × mg protein^-1 × min^-1. Also, the “Uptake by SLC22A15 (in words)” value on SLC22A15 was “significantly increased the uptake”. Besides, at SLC22A18, the “Uptake by SLC22A18 (in words)” value was “newly identified substrates”.
